Molecules are shown by their SMILES. Entries after “also recorded” stand apart in the source; their conditions may differ.

The test system of series [1] is Nasenpolypenzellen. Briefly: Proliferation of nasal polyp cells (xCELLigence Real Time Cell Analyzer; figure legend says MTT test). In kind it is cell-based, Mensch. To be noted: 100 µM 1,8-Cineol, after 144 Stunden; two subjects I and II (Figur 2A). The source says: (§1) Material und Methoden: Die Anmelderin hat Gewebeproben aus Nasenpolypen und unteren Nasenmuscheln von Patienten mit CRSwNP (chronischer Rhinosinusitis mit Nasenpolypen) und aus unteren Nasenmuscheln von Probanden ohne chronische Sinusitis (gesunde Schleimhaut) auf Basis von immunohistochemischen Methoden und Immunoblot-Verfahren untersucht. Die zelluläre Proliferation und Migration wurden unter Einsatz des xCELLigence Real Time Cell Analyzer untersucht.
Proben von Nasenpolypen wurden in PBS-Puffer gewaschen und in sterilem serumfreiem "High Glucose Dulbecco's Modified Eagle Medium" (PAA, Pasching, Österreich) mit einer Skalpellklinge vorsichtig in kleine Stücke zerkleinert, wobei das Medium 1 % L-Glutamin, 1 % Natriumpyruvat, 1 % nichtessentielle Aminosäuren, 2 % Amphotericin B, 2 % Streptomycin und 2 % Penicillin, ergänzt mit 10 % FCS, und 25 mM HEPES Puffer, enthielt (alle von PAA, Pasching, Österreich). […]
Die Zellproliferation wurde mittels eines quantitativen kolorimetrischen 3-(4,5-Dimethylthiazol 2-yl)-2,5-diphenyltetrazoliumbromid-basierten (MTT) Zelltests bestimmt. […]

The subject of series [2] is kultivierte Zellen aus der Nasenschleimhaut. Briefly: Proliferation of cultured nasal mucosa (epithelial) cells. In kind it is cell-based, Mensch. The following applies: treatment with 1,8-Cineol (Figur 2B).
Text: as §1
Die Zellproliferation wurde mittels eines quantitativen kolorimetrischen 3-(4,5-Dimethylthiazol 2-yl)-2,5-diphenyltetrazoliumbromid-basierten (MTT) Zelltests bestimmt. Dieser Test bestimmt die Anzahl an lebensfähigen Zellen auf Basis der mitochondrialen Umwandlung von MTT.
Die Proliferation wurde mittels eines MTT-Tests von Sigma-Aldrich ("In Vitro Toxicology Assay Kit") entsprechend den Instruktionen des Herstellers ermittelt.
Im Vergleich zur gesunden Nasenschleimhaut weisen Nasenpolypen eine andere Morphologie auf, was anhand von immunohistochemischen Färbungen mit Hämatoxylin-Eosin (HE) an gefrorenen Gewebeschnitten gezeigt werden konnte (Figur 1). Mit dieser Färbemethode werden basophile Strukturen mit Blau-Lila und eosinophile Strukturen mit hellem Pink angefärbt, wohingegen hydrophobe Strukturen, wie die Membranen des Golgi-Apparats, ungefärbt bzw. klar bleiben. […]

Series [3] deals with Patienten mit Polyposis nasi et sinuum. In kind it is in vivo, Mensch. The source says: Im Rahmen einer klinischen Anwendung erhielten 22 Patienten nach einer Nasennebenhöhlenoperation zusätzlich zu einer Standardmedikation 1,8-Cineol (Soledum forte®), 3-mal 1 Kapsel, über einen Zeitraum von 3 Monaten. Die präoperativen CT-Bilder wurden nach dem Lund-Mackay-Score bewertet. Die Patienten wurden gebeten, ihre Beschwerden mittels eines Fragebogens (SNOT20 - German adapted version) einzuschätzen. 21 von 22 Patienten beendeten die Therapie wie vorgesehen. Ein Patient berichtete über gastrointestinale Nebenwirkungen und brach die Behandlung mit 1,8-Cineol ab. […] Somit war ein gutes Ansprechen auf die zusätzliche medikamentöse Behandlung mit 1,8-Cineol bei einem tolerablen Nebenwirkungsprofil zu beobachten.

In series [4] the test system is allen untersuchten Zellspezies. Briefly: Vitality/proliferation, summary over all cell species investigated. In kind it is cell-based. The following applies: 10mM. The procedure:
Erste Vorversuche zum Einfluss von Cineol auf die Progression von Polyposis nasi et sinuum wurden durchgeführt. Hierzu wurden zunächst Einzelzellsuspensionen hergestellt und diese wurden in der Zellkultur über einen Zeitraum von 288 Stunden mit Standardmedium und mit 1mM Cineol inkubiert.
Es wurden weiterführende Untersuchungen durchgeführt zur Analyse des Einflusses von Cineol auf die Vitalität und Proliferation verschiedener permanenter Zelllinien. Hierzu wurden einerseits die zwei HNSCC-Zelllinien und des Weiteren eine Fibroblastenzelllinie verwendet. Diese wurden über einen Zeitraum von 250 Stunden mit verschiedenen Cineol-Konzentrationen kultiviert (1 mM bis 10 mM) und die Vitalität der Zellen wurde jeweils mittels eines MTT-Assays untersucht.
Hierbei zeigte sich ein ähnliches Bild wie in den vorhergegangenen Untersuchungen zum Einfluss von Cineol auf die Vitalität von Polyposis nasi et sinuum-Einzelzellsupensionen, wobei sich jedoch die permanenten Zelllinien erst zu geringfügig späteren Zeitpunkten und bei geringfügig höheren Cineol-Konzentrationen signifikant in ihrer Proliferation beeinflussen ließen. […]

In the case of `CC12CCC(CC1)C(C)(C)O2` [1,8-Cineol, 1,3,3-Trimethyl-2-oxabicyclo[2.2.2]octan], the “Proliferation von Nasenpolypenzellen” value in series [1] is given as “stark verringerte Proliferation; also recorded: stark abnehmende Proliferation”. Also, the “Proliferation kultivierter Zellen aus der Nasenschleimhaut” value in series [2] was “nicht beeinflusst”. Moreover, the SNOT-20-Score entry in series [3] (first orienting evaluation, compared with preoperative results) is recorded as “deutliche Verbesserung”. In series [3] (follow-up examination after 6 months), the Rezidivpolyposis entry is “lediglich bei einem Patienten eine beginnende geringfügige Rezidivpolyposis”. In addition, the “gastrointestinale Nebenwirkungen” value in series [3] (in vivo) is “Ein Patient”. The “zytotoxische Wirkung” value in series [4] was “deutlich zytotoxischen Wirkung”.

Source of the values: EP3325012B1, “CINEOLE-CONTAINING COMPOSITION FOR TREATING NOSE POLYPS” (Maria Clementine Martin Klosterfrau Vertriebsgesellschaft …, priority 2015, dated 2017).
